Legend:
[1] = system: LPS-induced secretion of TNFα in human PBMCs; experiment: LPS-induced secretion of TNFα in human PBMCs; format: cell-based; conditions: 24 h, LPS 10 ng/ml
Experimental: Extraction process of peripheral blood mononuclear cells (PBMCs): one unit of human peripheral blood concentrate (concentrated from 200 cc peripheral blood) was sucked and added with 0.9% saline until a total volume reached 120 ml, and mixed homogenously. 15 ml Lymphoprep™ was added into 50 ml centrifuge tube, and then 30 ml of diluted blood concentrate was carefully and slowly added thereto, allowing the diluted blood to be stacked on the layered solution and preventing the diluted blood from being mixed into the separated solutions or breaking the surface of the separated solution, wherein a ratio of Lymphoprep™ to the diluted blood was 1:2. The centrifuge tubes were balanced and placed in a horizontal centrifuge (eppendorf, 5810R), and centrifuged at 800 g and 20° C. for 20 min. The centrifuge tubes were carefully taken out. PBMCs were absorbed by directly inserting the Pasteur pipette deep into the buffy coat. The obtained PBMCs were gently pipetted with 3 times the volume of 0.9% normal saline or PBS (without calcium or magnesium ions) to mix homogenously. After that, the cells were centrifuged at 250 g and 20° C. for 10 min, the supernatant was removed to remove the platelets remaining in the cell suspension. The obtained cell pellet was resuspended in 20 ml of PBS, and counted using trypan blue.
Compound screening by using PBMCs: the PBMC suspension obtained above was centrifuged to remove PBS, then resuspended in complete medium (RPMI1640+10% FBS+1% P/S) and counted. 100 μL/well of the cells was seeded at 5×10^4/well. Each of the compounds to be screened was prepared as 4 times the final concentration, which was added to the cells at 50 μL/well. The compound was pre-incubated for 30 min in advance of being added to the cells. Meanwhile, control wells to which the compound was not added were provided. A final stimulation concentration of LPS was 10 ng/ml, and LPS was formulated as 4 times the final stimulation concentration, and added to the cells at 50 μL/well. Meanwhile, control wells, i.e., wells without LPS were provided. The cells were incubated for 24 h, and 10% of the supernatant was collected for detection. The obtained supernatant was detected using Invitrogen's Human TNF-α kit (REF: 88-7346-88).

[2] = target: T1, PDE4B (Homo sapiens, UniProt Q07343); experiment: PDE4B enzyme activity assay (PDE-Glo Phosphodiesterase Assay Kit); format: biochemical
T1 construct: purchased Enzo Life Sciences BML-SE522-0020
Experimental: (§1) For the previously synthesized compounds, the inhibitory activity of the compounds against PDE4B and against PDE4D was tested by using PDE-Glo Phosphodiesterase Assay Kit (promega, V1361). In short, in accordance with the instructions of the kit, a concentrated stock solution (10 mM) the compound to be tested was first prepared with DMSO solvent, and the concentrated stock solution was then diluted into 10× working solutions with a Reaction buffer provided in the kit. With the Reaction buffer, on ice, PDE4B enzyme (Enzo Life Sciences, BML-SE522-0020) was diluted to a concentration of 1 ng/μl to obtain a PDE4B enzyme working solution, and PDE4D enzyme (Enzo Life Sciences, BML-SE523-0020) was diluted to a concentration of 4 ng/μl to obtain a PDE4D enzyme working solution. 1.5 μl of the PDE4B working solution (or PDE4D working solution) and 1 μl of the compound working solution were added to wells of 384-well plate (Corning, CLS3707), and incubated with shaking at room temperature for 5 min, followed by adding 2.5 μl of cAMP (in Reaction buffer, 2 μM) per well, incubating with shaking at room temperature for 20 min. 2.5 μl/well of 1× Termination Buffer, and then 2.5 μl/well of 1× Detection Buffer were added, and further incubated with shaking at room temperature for 20 min. 10 μl/well of 1× Kinase-Glo was added, and the plate was incubated with shaking at room temperature for 10 min, and bioluminescence was measured with PheraStar instrument. The experimental results were plotted with GraphPad Prism software, and fitted to calculate IC50 of each compound.

[3] = target: T2, PDE4D (Homo sapiens, UniProt Q08499); experiment: PDE4D enzyme activity assay (PDE-Glo Phosphodiesterase Assay Kit); format: biochemical
T2 construct: purchased Enzo Life Sciences BML-SE523-0020
Experimental: as §1

T1 sequence (Q07343 whole entry): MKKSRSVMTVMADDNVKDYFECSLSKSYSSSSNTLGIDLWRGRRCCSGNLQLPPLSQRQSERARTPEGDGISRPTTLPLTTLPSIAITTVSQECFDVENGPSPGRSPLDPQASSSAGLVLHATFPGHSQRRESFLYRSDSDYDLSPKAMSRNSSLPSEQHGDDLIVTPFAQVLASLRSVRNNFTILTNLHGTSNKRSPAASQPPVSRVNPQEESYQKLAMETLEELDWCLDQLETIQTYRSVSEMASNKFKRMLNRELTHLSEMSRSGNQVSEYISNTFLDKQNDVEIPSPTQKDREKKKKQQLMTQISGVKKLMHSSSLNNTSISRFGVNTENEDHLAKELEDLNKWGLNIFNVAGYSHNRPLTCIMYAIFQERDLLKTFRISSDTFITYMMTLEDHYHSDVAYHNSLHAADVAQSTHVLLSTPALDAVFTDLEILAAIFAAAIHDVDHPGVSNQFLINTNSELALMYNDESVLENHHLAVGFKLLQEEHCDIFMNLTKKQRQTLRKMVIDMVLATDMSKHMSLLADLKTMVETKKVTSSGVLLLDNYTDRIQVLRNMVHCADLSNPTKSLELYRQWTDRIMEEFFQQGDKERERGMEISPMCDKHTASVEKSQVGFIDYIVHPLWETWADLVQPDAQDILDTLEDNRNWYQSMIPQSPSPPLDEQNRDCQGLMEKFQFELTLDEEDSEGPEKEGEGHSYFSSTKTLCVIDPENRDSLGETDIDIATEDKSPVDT
T2 sequence (Q08499 whole entry): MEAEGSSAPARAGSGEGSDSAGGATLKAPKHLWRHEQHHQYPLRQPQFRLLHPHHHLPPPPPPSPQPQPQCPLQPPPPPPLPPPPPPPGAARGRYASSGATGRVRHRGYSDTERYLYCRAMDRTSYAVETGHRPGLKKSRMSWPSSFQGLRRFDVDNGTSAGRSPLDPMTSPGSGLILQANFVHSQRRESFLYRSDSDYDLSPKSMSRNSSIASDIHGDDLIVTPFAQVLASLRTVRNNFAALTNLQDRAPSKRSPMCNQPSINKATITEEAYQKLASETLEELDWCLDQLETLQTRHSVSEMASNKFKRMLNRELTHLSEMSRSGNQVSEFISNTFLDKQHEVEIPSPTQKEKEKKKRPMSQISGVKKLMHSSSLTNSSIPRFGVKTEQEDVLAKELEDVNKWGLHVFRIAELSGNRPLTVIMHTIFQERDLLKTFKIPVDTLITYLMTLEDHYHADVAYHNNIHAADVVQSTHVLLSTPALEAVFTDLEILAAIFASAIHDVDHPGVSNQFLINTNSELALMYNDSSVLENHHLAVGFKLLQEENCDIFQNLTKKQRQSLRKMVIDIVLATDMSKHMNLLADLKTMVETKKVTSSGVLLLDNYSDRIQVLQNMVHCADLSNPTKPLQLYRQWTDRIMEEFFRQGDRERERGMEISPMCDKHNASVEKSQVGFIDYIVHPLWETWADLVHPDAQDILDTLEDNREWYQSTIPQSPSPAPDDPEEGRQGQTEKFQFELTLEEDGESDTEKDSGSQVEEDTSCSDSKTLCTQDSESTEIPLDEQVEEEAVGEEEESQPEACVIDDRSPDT

SMILES	IC50 ([1]; Homo sapiens, PBMC) [nM]	inhibition of PDE4B (in words) [2]	selective inhibitory activity against PDE4B versus PDE4D, compared with the positive control compound (in words) [2]	IC50 [2] [nM]	also measured
COc1ccc([C@@H]2CN(C(=O)[C@@H](O)CO)C[C@@]2(C)[C@@H](C)O)cc1OC1CN(c2ncc(C)cc2Cl)C1 [Compound 005, (S)-1-((3S,4S)-4-(3-((1-(3-chloro-5-methylpyridin-2-yl)azetidin-3-yl)oxy)-4-methoxyphenyl)-3-((R)-1-hydroxyethyl)-3-methylpyrrolidin-1-yl)-2,3-dihydroxypropan-1-one]	6.18	effectively inhibit PDE4B	significantly higher than that control compound		
COc1ccc([C@@H]2CN(C(=O)[C@@H](O)CO)C[C@@]2(C)[C@@H](C)O)cc1OC1CN(c2ccc(C#N)c(C)n2)C1 [Compound 013, 6-(3-(5-((3S,4S)-1-((S)-2,3-dihydroxypropanoyl)-4-((R)-1-hydroxyethyl)-4-methylpyrrolidin-3-yl)-2-methoxyphenoxy)azetidin-1-yl)-2-methylnicotinonitrile]		effectively inhibit PDE4B	significantly higher than that control compound		
COc1ccc([C@@H]2CN(C(=O)[C@@H](O)CO)C[C@@]2(C)[C@@H](C)O)cc1OC1CN(c2ncc(C)cn2)C1 [Compound 016, (S)-2,3-dihydroxy-1-((3S,4S)-3-((R)-1-hydroxyethyl)-4-(4-methoxy-3-((1-(5-methylpyrimidin-2-yl)azetidin-3-yl)oxy)phenyl)-3-methylpyrrolidin-1-yl)propan-1-one]		effectively inhibit PDE4B	significantly higher than that control compound		
CCc1cnc(N2CC(Oc3cc([C@@H]4CN(C(=O)[C@@H](O)CO)C[C@@]4(C)[C@@H](C)O)ccc3OC)C2)nc1 [Compound 017, (S)-1-((3S,4S)-4-(3-((1-(5-ethylpyrimidin-2-yl)azetidin-3-yl)oxy)-4-methoxyphenyl)-3-((R)-1-hydroxyethyl)-3-methylpyrrolidin-1-yl)-2,3-dihydroxypropan-1-one]		effectively inhibit PDE4B	significantly higher than that control compound		
COc1ccc([C@@H]2CN(C(=O)[C@@H](O)CO)C[C@@]2(C)[C@@H](C)O)cc1OC1CN(c2ncc(Cl)cn2)C1 [Compound 018, (S)-1-((3S,4S)-4-(3-((1-(5-chloropyrimidin-2-yl)azetidin-3-yl)oxy)-4-methoxyphenyl)-3-((R)-1-hydroxyethyl)-3-methylpyrrolidin-1-yl)-2,3-dihydroxypropan-1-one]		effectively inhibit PDE4B	significantly higher than that control compound		
COc1ccc([C@@H]2CN(C(=O)[C@@H](O)CO)C[C@@]2(C)[C@@H](C)O)cc1OC1CN(c2cnc(C#N)cn2)C1 [Compound 019, 5-(3-(5-((3S,4S)-1-((S)-2,3-dihydroxypropanoyl)-4-((R)-1-hydroxyethyl)-4-methylpyrrolidin-3-yl)-2-methoxyphenoxy)azetidin-1-yl)pyrazine-2-carbonitrile]				1.87	
COc1ccc(N2CC(Oc3cc([C@@H]4CN(C(=O)[C@@H](O)CO)C[C@@]4(C)[C@@H](C)O)ccc3OC)C2)cn1 [Compound 020, (S)-2,3-dihydroxy-1-((3S,4S)-3-((R)-1-hydroxyethyl)-4-(4-methoxy-3-((1-(6-methoxypyridin-3-yl)azetidin-3-yl)oxy)phenyl)-3-methylpyrrolidin-1-yl)propan-1-one]	9.38			1.97	
COc1ccc([C@@H]2CN(C(=O)[C@@H](O)CO)C[C@@]2(C)[C@@H](C)O)cc1OC1CN(c2ncc(Cl)cc2C)C1 [Compound 023, (S)-1-((3S,4S)-4-(3-((1-(5-chloro-3-methylpyridin-2-yl)azetidin-3-yl)oxy)-4-methoxyphenyl)-3-((R)-1-hydroxyethyl)-3-methylpyrrolidin-1-yl)-2,3-dihydroxypropan-1-one]	5.4			1.3	
COc1ccc([C@@H]2CN(C(=O)[C@@H](O)CO)C[C@@]2(C)[C@@H](C)O)cc1OC1CN(c2ncc(Cl)cc2F)C1 [Compound 024, (S)-1-((3S,4S)-4-(3-((1-(5-chloro-3-fluoropyridin-2-yl)azetidin-3-yl)oxy)-4-methoxyphenyl)-3-((R)-1-hydroxyethyl)-3-methylpyrrolidin-1-yl)-2,3-dihydroxypropan-1-one]		effectively inhibit PDE4B	significantly higher than that control compound		IC50 [1]: 6.56 nM
COc1ccc([C@@H]2CN(C(=O)[C@@H](O)CO)C[C@@]2(C)[C@@H](C)O)cc1OC1CN(c2ccc(F)c(C)n2)C1 [Compound 026, (S)-1-((3S,4S)-4-(3-((1-(5-fluoro-6-methylpyridin-2-yl)azetidin-3-yl)oxy)-4-methoxyphenyl)-3-((R)-1-hydroxyethyl)-3-methylpyrrolidin-1-yl)-2,3-dihydroxypropan-1-one]	14.9			2.76	
CCc1nc(N2CC(Oc3cc([C@@H]4CN(C(=O)[C@@H](O)CO)C[C@@]4(C)[C@@H](C)O)ccc3OC)C2)ccc1C [Compound 027, (S)-1-((3S,4S)-4-(3-((1-(6-ethyl-5-methylpyridin-2-yl)azetidin-3-yl)oxy)-4-methoxyphenyl)-3-((R)-1-hydroxyethyl)-3-methylpyrrolidin-1-yl)-2,3-dihydroxypropan-1-one]				14.3	IC50 [3]: 24.8 nM; IC50 (PDE4D)/IC50 (PDE4B) ([2]; selectivity ratio): 1.73
CCc1ccc(N2CC(Oc3cc([C@@H]4CN(C(=O)[C@@H](O)CO)C[C@@]4(C)[C@@H](C)O)ccc3OC)C2)nc1C [Compound 029, (S)-1-((3S,4S)-4-(3-((1-(5-ethyl-6-methylpyridin-2-yl)azetidin-3-yl)oxy)-4-methoxyphenyl)-3-((R)-1-hydroxyethyl)-3-methylpyrrolidin-1-yl)-2,3-dihydroxypropan-1-one]		effectively inhibit PDE4B	significantly higher than that control compound		
CCc1cnc(N2CC(Oc3cc([C@@H]4CN(C(=O)[C@@H](O)CO)C[C@@]4(C)[C@@H](C)O)ccc3OC)C2)cc1C [Compound 030, (S)-1-((3S,4S)-4-(3-((1-(5-ethyl-4-methylpyridin-2-yl)azetidin-3-yl)oxy)-4-methoxyphenyl)-3-((R)-1-hydroxyethyl)-3-methylpyrrolidin-1-yl)-2,3-dihydroxypropan-1-one]		effectively inhibit PDE4B	significantly higher than that control compound		

From patent US20220056014A1, “PHENYLPYRROLIDINE COMPOUND AND USE THEREOF” (WUHAN HUMANWELL INNOVATIVE DRUG RESEARCH AND DEVELOPMENT …, priority 2018, published 2022)
